Reference: PMC5218480 (PLoS ONE, 2017)

Tested on: MV-4-11 cells
Assay: Gene expression microarray analysis (Affymetrix PrimeView) and GSEA
Assay type: cell-based, human
Design: RFU PODN (11730768_x_at) / Fold change /veh PODN (11730768_x_at) / RFU LINC00158 (11744669_a_at) / Fold change /veh LINC00158 (11744669_a_at) / RFU DUSP10 (11751237_a_at) / Fold change /veh DUSP10 (11751237_a_at) / RFU ID3 (11757404_x_at) / Fold change /veh ID3 (11757404_x_at) / RFU PLEKHG5 (11737974_s_at) / Fold change /veh PLEKHG5 (11737974_s_at) / RFU LRRC4B (11730491_at) / Fold change /veh LRRC4B (11730491_at) / RFU GIMAP4 (11747438_a_at) / Fold change /veh GIMAP4 (11747438_a_at) / RFU KRT8 (11758183_x_at) / Fold change /veh KRT8 (11758183_x_at) / RFU CNN1 (11734310_a_at) / Fold change /veh CNN1 (11734310_a_at) / RFU VPS37D (11726825_at) / Fold change /veh VPS37D (11726825_at) / RFU C10orf10 (11716522_x_at) / Fold change /veh C10orf10 (11716522_x_at) / RFU KIR2DL2 /// KIR2DL4 /// KIR2DL5A /// KIR2DL5B /// KIR2DS1 /// KIR2DS2 /// KIR2DS3 /// KIR2DS4 /// KIR3DL3 /// KIR3DL3 /// KIR3DS1 (11738374_at) / Fold change /veh KIR2DL2 /// KIR2DL4 /// KIR2DL5A /// KIR2DL5B /// KIR2DS1 /// KIR2DS2 /// KIR2DS3 /// KIR2DS4 /// KIR3DL3 /// KIR3DL3 /// KIR3DS1 (11738374_at) / RFU C1QL1 (11718748_at) / Fold change /veh C1QL1 (11718748_at) / RFU TMPRSS4 (11747572_a_at) / Fold change /veh TMPRSS4 (11747572_a_at) / RFU HAMP (11756126_x_at) / Fold change /veh HAMP (11756126_x_at) / RFU RNFT2 (11725882_a_at) / Fold change /veh RNFT2 (11725882_a_at) / RFU NR4A2 (11747474_a_at) / Fold change /veh NR4A2 (11747474_a_at) / RFU ABCC12 (11746883_a_at) / Fold change /veh ABCC12 (11746883_a_at) / RFU TMEM136 (11760407_x_at) / Fold change /veh TMEM136 (11760407_x_at) / RFU CLDN22 /// WWC2 (11732394_at) / Fold change /veh CLDN22 /// WWC2 (11732394_at) / RFU HLA-DPB1 (11760878_x_at) / Fold change /veh HLA-DPB1 (11760878_x_at) / RFU SPINT1 (11716480_a_at) / Fold change /veh SPINT1 (11716480_a_at) / RFU GAP43 (11754022_s_at) / Fold change /veh GAP43 (11754022_s_at) / RFU A4GNT (11735810_at) / Fold change /veh A4GNT (11735810_at) / RFU PRB3 (11715151_x_at) / Fold change /veh PRB3 (11715151_x_at) / RFU TUBB4B (11761932_at) / Fold change /veh TUBB4B (11761932_at) / RFU CAPN14 (11732068_a_at) / Fold change /veh CAPN14 (11732068_a_at) / RFU TMCC2 (11721928_a_at) / Fold change /veh TMCC2 (11721928_a_at) / RFU IRGQ (11745062_a_at) / Fold change /veh IRGQ (11745062_a_at) / RFU FAM174B (11720279_a_at) / Fold change /veh FAM174B (11720279_a_at) / RFU TMPRSS4 (11748680_a_at) / Fold change /veh TMPRSS4 (11748680_a_at) / RFU FAM212B (11763350_a_at) / Fold change /veh FAM212B (11763350_a_at) / RFU PLEKHG5 (11743358_a_at) / Fold change /veh PLEKHG5 (11743358_a_at) / RFU ZSCAN30 (11745921_a_at) / Fold change /veh ZSCAN30 (11745921_a_at) / RFU CMKLR1 (11741424_a_at) / Fold change /veh CMKLR1 (11741424_a_at) / RFU LOC101060620 /// MAPK8IP1 (11723275_at) / Fold change /veh LOC101060620 /// MAPK8IP1 (11723275_at) / RFU SPTSSB (11747773_x_at) / Fold change /veh SPTSSB (11747773_x_at) / RFU PRSS12 (11739890_at) / Fold change /veh PRSS12 (11739890_at) / RFU BIN1 (11741810_x_at) / Fold change /veh BIN1 (11741810_x_at) / RFU WNT11 (11732464_a_at) / Fold change /veh WNT11 (11732464_a_at) / RFU C10orf10 (11716521_a_at) / Fold change /veh C10orf10 (11716521_a_at) / RFU C5orf56 (11738089_at) / Fold change /veh C5orf56 (11738089_at) / RFU CYB561 (11721691_x_at) / Fold change /veh CYB561 (11721691_x_at) / RFU ANKRD19P (11752326_a_at) / Fold change /veh ANKRD19P (11752326_a_at) / RFU OR2T12 /// OR2T33 /// OR2T8 (11738714_s_at) / Fold change /veh OR2T12 /// OR2T33 /// OR2T8 (11738714_s_at) / RFU VCAN (11748164_a_at) / Fold change /veh VCAN (11748164_a_at) / RFU JSRP1 (11732532_at) / Fold change /veh JSRP1 (11732532_at) / RFU KRTAP10-11 (11738290_x_at) / Fold change /veh KRTAP10-11 (11738290_x_at) / RFU MYO3A (11730013_a_at) / Fold change /veh MYO3A (11730013_a_at) / RFU EBF3 (11725865_a_at) / Fold change /veh EBF3 (11725865_a_at) / RFU CAMK2N1 (11719241_x_at) / Fold change /veh CAMK2N1 (11719241_x_at) / RFU C5orf56 (11738088_a_at) / Fold change /veh C5orf56 (11738088_a_at) / RFU OLFML3 (11715873_a_at) / Fold change /veh OLFML3 (11715873_a_at) / RFU LOC100653217 /// NTM (11731650_a_at) / Fold change /veh LOC100653217 /// NTM (11731650_a_at) / RFU MAPK11 (11762145_a_at) / Fold change /veh MAPK11 (11762145_a_at) / RFU FIZ1 (11724087_x_at) / Fold change /veh FIZ1 (11724087_x_at) / RFU OASL (11726364_x_at) / Fold change /veh OASL (11726364_x_at) / RFU SOX15 (11748057_x_at) / Fold change /veh SOX15 (11748057_x_at) / RFU CD79A (11719716_a_at) / Fold change /veh CD79A (11719716_a_at) / RFU HIST1H1D (11736915_at) / Fold change /veh HIST1H1D (11736915_at) / RFU CASKIN2 (11723855_a_at) / Fold change /veh CASKIN2 (11723855_a_at) / RFU LOC730098 (11760151_x_at) / Fold change /veh LOC730098 (11760151_x_at) / RFU OR4N2 (11742367_at) / Fold change /veh OR4N2 (11742367_at) / RFU PRRT2 (11749266_a_at) / Fold change /veh PRRT2 (11749266_a_at) / RFU SNX32 (11753110_a_at) / Fold change /veh SNX32 (11753110_a_at) / RFU CDHR5 (11726645_a_at) / Fold change /veh CDHR5 (11726645_a_at) / RFU RCAN1 (11760418_a_at) / Fold change /veh RCAN1 (11760418_a_at) / RFU FAM167A (11723789_a_at) / Fold change /veh FAM167A (11723789_a_at) / RFU FAM26E (11764081_at) / Fold change /veh FAM26E (11764081_at) / RFU ISYNA1 (11749810_s_at) / Fold change /veh ISYNA1 (11749810_s_at) / RFU ACY1 (11761880_at) / Fold change /veh ACY1 (11761880_at) / RFU 11764098_at / Fold change /veh 11764098_at / RFU SAMD14 (11745864_x_at) / Fold change /veh SAMD14 (11745864_x_at) / RFU NPB (11741838_a_at) / Fold change /veh NPB (11741838_a_at) / RFU TMPRSS6 (11731388_a_at) / Fold change /veh TMPRSS6 (11731388_a_at) / RFU KRTAP10-2 (11738614_at) / Fold change /veh KRTAP10-2 (11738614_at) / RFU ARHGAP8 /// PRR5-ARHGAP8 (11727945_x_at) / Fold change /veh ARHGAP8 /// PRR5-ARHGAP8 (11727945_x_at) / RFU KRTAP5-7 /// NADSYN1 (11734609_at) / Fold change /veh KRTAP5-7 /// NADSYN1 (11734609_at) / RFU RASL12 (11751679_a_at) / Fold change /veh RASL12 (11751679_a_at) / RFU CDKN2B (11736163_a_at) / Fold change /veh CDKN2B (11736163_a_at) / RFU PRF1 (11729649_at) / Fold change /veh PRF1 (11729649_at) / RFU, ZNF638 /// ZNF638-IT1 / Fold change vs veh, ZNF638 /// ZNF638-IT1 / RFU, PANK3 / Fold change vs veh, PANK3 / RFU, SH3YL1 / Fold change vs veh, SH3YL1 / RFU, ZEB2 / Fold change vs veh, ZEB2 / RFU, NRIP1 / Fold change vs veh, NRIP1 / RFU, PTTG1IP / Fold change vs veh, PTTG1IP / RFU, CAPN2 / Fold change vs veh, CAPN2 / RFU, MED14 / Fold change vs veh, MED14 / RFU, SNORA58 / Fold change vs veh, SNORA58 / RFU, C1orf63 / Fold change vs veh, C1orf63 / RFU, LRRFIP1 / Fold change vs veh, LRRFIP1 / RFU, NDUFAF7 / Fold change vs veh, NDUFAF7 / RFU, SLC12A2 / Fold change vs veh, SLC12A2 / RFU, IBTK / Fold change vs veh, IBTK / RFU, ESF1 / Fold change vs veh, ESF1 / Fold change vs veh, TMEM50B / RFU, TAOK1 / Fold change vs veh, TAOK1 / RFU, ACBD3 / Fold change vs veh, ACBD3 / RFU, TMA16 / Fold change vs veh, TMA16 / RFU, RWDD3 / Fold change vs veh, RWDD3 / RFU, BCAT1 / Fold change vs veh, BCAT1 / RFU, EDEM3 / Fold change vs veh, EDEM3 / RFU, TMEM33 / Fold change vs veh, TMEM33 / RFU, WDR75 / Fold change vs veh, WDR75 / RFU, AHCTF1 / Fold change vs veh, AHCTF1 / RFU, TFRC / Fold change vs veh, TFRC / RFU, ZDHHC17 / Fold change vs veh, ZDHHC17 / RFU, NOM1 / Fold change vs veh, NOM1 / RFU, ARL8B / Fold change vs veh, ARL8B / RFU, ZBTB11 / Fold change vs veh, ZBTB11 / RFU, TAMM41 / Fold change vs veh, TAMM41 / RFU, KIAA1704 /// LOC100996395 / Fold change vs veh, KIAA1704 /// LOC100996395 / RFU, ING1 / Fold change vs veh, ING1 / RFU, TRMT61B / Fold change vs veh, TRMT61B / RFU, FUBP3 / Fold change vs veh, FUBP3 / RFU, TP53 / Fold change vs veh, TP53 / RFU, TNKS2 / Fold change vs veh, TNKS2 / RFU, ZFP14 / Fold change vs veh, ZFP14 / RFU, ACTR2 / Fold change vs veh, ACTR2 / RFU, PPP3R1 / Fold change vs veh, PPP3R1 / RFU, PIK3R1 / Fold change vs veh, PIK3R1 / RFU, HNRNPA1 / Fold change vs veh, HNRNPA1 / RFU, RNF170 / Fold change vs veh, RNF170 / RFU, ZNF28 / Fold change vs veh, ZNF28 / RFU, RNGTT / Fold change vs veh, RNGTT / RFU, OGT / Fold change vs veh, OGT / RFU, BRD1 / Fold change vs veh, BRD1 / RFU, MARS / Fold change vs veh, MARS / RFU, ZNF655 / Fold change vs veh, ZNF655 / RFU, FAHD1 / Fold change vs veh, FAHD1 / RFU, BDP1 / Fold change vs veh, BDP1 / RFU, LRRCC1 / Fold change vs veh, LRRCC1 / RFU, ARID1A / Fold change vs veh, ARID1A / RFU, ZNF146 / Fold change vs veh, ZNF146 / RFU, ZNF330 / Fold change vs veh, ZNF330 / RFU, GPN3 / Fold change vs veh, GPN3 / RFU, C9orf123 / Fold change vs veh, C9orf123 / RFU, N4BP2L2 / Fold change vs veh, N4BP2L2 / RFU, ARFIP1 / Fold change vs veh, ARFIP1 / RFU, FAM179B / Fold change vs veh, FAM179B / RFU, BCL10 / Fold change vs veh, BCL10 / RFU, UHRF1BP1L / Fold change vs veh, UHRF1BP1L / RFU, BET1 / Fold change vs veh, BET1 / RFU, CNOT2 / Fold change vs veh, CNOT2 / RFU, ZNF268 / Fold change vs veh, ZNF268 / Fold change vs veh, ZNF507 / RFU, DGCR2 / Fold change vs veh, DGCR2 / RFU, WDSUB1 / Fold change vs veh, WDSUB1 / Fold change vs veh, HSP90B1 /// MIR3652 / RFU, ADSS / Fold change vs veh, ADSS / RFU, GK / Fold change vs veh, GK / RFU, ZNF148 / Fold change vs veh, ZNF148 / RFU, TAF9 / Fold change vs veh, TAF9 / RFU, SLC1A5 / Fold change vs veh, SLC1A5 / RFU, SLMO2 / Fold change vs veh, SLMO2 / RFU, ABCC4 / Fold change vs veh, ABCC4 / RFU, LOC101060439 /// RAP1B / Fold change vs veh, LOC101060439 /// RAP1B / RFU, RFX7 / Fold change vs veh, RFX7 / RFU, GTPBP10 / Fold change vs veh, GTPBP10 / RFU, CNEP1R1 / Fold change vs veh, CNEP1R1 / RFU, BIVM-ERCC5 /// ERCC5 / Fold change vs veh, BIVM-ERCC5 /// ERCC5 / RFU, ILF3 / Fold change vs veh, ILF3 / RFU 11762660_at / Fold change /veh 11762660_at / RFU VCAN (11757783_s_at) / Fold change /veh VCAN (11757783_s_at) / RFU DDX43 (11728927_at) / Fold change /veh DDX43 (11728927_at) / RFU KRT8 (11758188_x_at) / Fold change /veh KRT8 (11758188_x_at) / RFU NKD1 (11759106_at) / Fold change /veh NKD1 (11759106_at) / RFU SRD5A1 (11742802_a_at) / Fold change /veh SRD5A1 (11742802_a_at) / RFU TPSAB1 /// TPSB2 (11721975_s_at) / Fold change /veh TPSAB1 /// TPSB2 (11721975_s_at) / RFU GSTM3 (11746129_a_at) / Fold change /veh GSTM3 (11746129_a_at) / RFU IL23R (11737362_x_at) / Fold change /veh IL23R (11737362_x_at) / RFU TMEM51 (11727254_a_at) / Fold change /veh TMEM51 (11727254_a_at) / RFU PIWIL2 (11732686_x_at) / Fold change /veh PIWIL2 (11732686_x_at) / RFU ORM1 (11744905_x_at) / Fold change /veh ORM1 (11744905_x_at) / RFU CCDC152 (11743942_at) / Fold change /veh CCDC152 (11743942_at) / RFU ECM1 (11717891_a_at) / Fold change /veh ECM1 (11717891_a_at) / RFU IL23R (11748794_a_at) / Fold change /veh IL23R (11748794_a_at) / RFU TNFAIP8L3 (11732012_x_at) / Fold change /veh TNFAIP8L3 (11732012_x_at) / RFU MBOAT4 (11741988_at) / Fold change /veh MBOAT4 (11741988_at) / RFU 11764193_at / Fold change /veh 11764193_at / RFU TMEM53 (11763286_at) / Fold change /veh TMEM53 (11763286_at) / RFU MAGEB2 (11727129_at) / Fold change /veh MAGEB2 (11727129_at) / RFU TMEM200A (11744735_a_at) / Fold change /veh TMEM200A (11744735_a_at) / RFU CCDC152 (11751479_a_at) / Fold change /veh CCDC152 (11751479_a_at) / RFU FAM211A (11726209_a_at) / Fold change /veh FAM211A (11726209_a_at) / RFU RGS16 (11746705_a_at) / Fold change /veh RGS16 (11746705_a_at) / RFU VCAN (11755009_s_at) / Fold change /veh VCAN (11755009_s_at) / RFU RHOB (11743442_s_at) / Fold change /veh RHOB (11743442_s_at) / RFU RGS16 (11720943_a_at) / Fold change /veh RGS16 (11720943_a_at) / RFU RGS16 (11720944_at) / Fold change /veh RGS16 (11720944_at) / RFU, VPS4B / Fold change vs veh, VPS4B / RFU, CREB1 / Fold change vs veh, CREB1 / RFU, DNAJC13 / Fold change vs veh, DNAJC13 / RFU, GNAQ / Fold change vs veh, GNAQ / RFU, CDK5R1 / Fold change vs veh, CDK5R1 / RFU, ZRANB3 / Fold change vs veh, ZRANB3 / RFU, CUL4A / Fold change vs veh, CUL4A / RFU, CCNY / Fold change vs veh, CCNY / RFU, UFL1 / Fold change vs veh, UFL1 / RFU, COG3 / Fold change vs veh, COG3 / RFU, DIAPH2 / Fold change vs veh, DIAPH2 / RFU, SKA2 / Fold change vs veh, SKA2 / RFU, AFF3 / Fold change vs veh, AFF3 / RFU, LMF1 / Fold change vs veh, LMF1 / RFU, IPO11 / Fold change vs veh, IPO11 / RFU, DFFB / Fold change vs veh, DFFB / RFU, FOXP1 / Fold change vs veh, FOXP1 / RFU, CARD8 / Fold change vs veh, CARD8 / RFU, STRN3 / Fold change vs veh, STRN3 / RFU, ADK / Fold change vs veh, ADK / RFU, RASSF2 / Fold change vs veh, RASSF2 / RFU, WIPF1 / Fold change vs veh, WIPF1 / RFU, LARP1B / Fold change vs veh, LARP1B / RFU, RASA1 / Fold change vs veh, RASA1 / RFU, RB1 / Fold change vs veh, RB1 / RFU, PPFIA1 / Fold change vs veh, PPFIA1 / RFU, MAT2A / Fold change vs veh, MAT2A / RFU, CCT5 / Fold change vs veh, CCT5 / RFU, WDR92 / Fold change vs veh, WDR92 / RFU, CUX1 / Fold change vs veh, CUX1 / RFU, TTC7A / Fold change vs veh, TTC7A / RFU, TMEM135 / Fold change vs veh, TMEM135 / RFU, DEPTOR / Fold change vs veh, DEPTOR / RFU, CPM / Fold change vs veh, CPM / RFU, DNAJB6 / Fold change vs veh, DNAJB6 / RFU, CACNA2D3 / Fold change vs veh, CACNA2D3 / RFU, DTX4 / Fold change vs veh, DTX4 / RFU, TFCP2 / Fold change vs veh, TFCP2 / RFU, GMCL1 /// GMCL1P1 / Fold change vs veh, GMCL1 /// GMCL1P1 / RFU, AEBP2 / Fold change vs veh, AEBP2 / RFU, SNHG1 /// SNORD22 /// SNORD25 /// SNORD26 /// SNORD27 /// SNORD28 /// SNORD29 /// SNORD31 / Fold change vs veh, SNHG1 /// SNORD22 /// SNORD25 /// SNORD26 /// SNORD27 /// SNORD28 /// SNORD29 /// SNORD31 / Fold change (Aza/veh), C12orf56 (ProbeSet 11735607_a_at) / Fold change (ACY-1035/veh), C12orf56 (ProbeSet 11735607_a_at) / Fold change (Aza/veh), FGFR1OP (ProbeSet 11751329_s_at) / Fold change (ACY-1035/veh), FGFR1OP (ProbeSet 11751329_s_at) / Fold change (Aza/veh), VPS36 (ProbeSet 11739960_a_at) / Fold change (ACY-1035/veh), VPS36 (ProbeSet 11739960_a_at) / RFU SYPL1 (11715823_x_at) / Fold change /veh SYPL1 (11715823_x_at) / RFU IGFBP7 (11715501_s_at) / Fold change /veh IGFBP7 (11715501_s_at) / RFU REEP3 (11722064_at) / Fold change /veh REEP3 (11722064_at) / RFU IGLL1 (11728026_x_at) / Fold change /veh IGLL1 (11728026_x_at): dose or concentration left out as unconfirmed
Settings: MV-4-11 cells, 48 hours

## Nc1ccc(-c2cccs2)cc1NC(=O)c1ccc2c(c1)cc(C1CC1)n2CCN1CCOCC1 [ACY-1035]
  Fold change /veh FAM211A (11726209_a_at): 1.04
